Assay results reported in publication PMC5100569 (Nucleic Acids Research, 2016).
Changes are numbered by the printed parent chain.

How the values were obtained:
saCodY [1] = biological target: T1, saCodY (Staphylococcus aureus, UniProt A7X1N2); experiment: surface plasmon resonance; format: binding
T1 sequence (A7X1N2 1-257): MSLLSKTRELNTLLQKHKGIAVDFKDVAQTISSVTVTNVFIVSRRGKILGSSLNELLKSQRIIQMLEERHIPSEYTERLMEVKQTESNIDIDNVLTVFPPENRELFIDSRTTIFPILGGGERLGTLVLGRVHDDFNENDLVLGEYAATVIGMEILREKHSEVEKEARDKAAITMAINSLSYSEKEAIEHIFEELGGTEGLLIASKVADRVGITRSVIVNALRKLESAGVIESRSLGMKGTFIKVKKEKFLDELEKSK

saCodY [2] = biological target: saCodY (Staphylococcus aureus, UniProt A7X1N2, E153A); experiment: biochemical
saCodY [3] = biological target: saCodY (Staphylococcus aureus, UniProt A7X1N2, H70A/K158A/K47A/R45A/S43A); experiment: biochemical
bcCodY = biological target: T2, bcCodY (Bacillus cereus, UniProt Q819X8); experiment: size-exclusion chromatography, change of oligomeric state; format: binding; settings: 1 mM GTP, pH 8.0, no Ile
T2 sequence (Q819X8 1-259): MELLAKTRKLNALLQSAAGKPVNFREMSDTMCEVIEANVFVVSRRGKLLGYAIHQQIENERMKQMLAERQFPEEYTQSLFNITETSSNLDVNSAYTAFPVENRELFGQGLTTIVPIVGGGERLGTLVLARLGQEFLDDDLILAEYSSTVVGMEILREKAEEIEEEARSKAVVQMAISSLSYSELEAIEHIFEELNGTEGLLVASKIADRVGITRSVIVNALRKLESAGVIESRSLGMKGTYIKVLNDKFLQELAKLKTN

SEC = biological target: the molecule itself; experiment: SEC
saCodY 3P5A = biological target: T3, saCodY 3P5A (Staphylococcus aureus, UniProt A7X1N2 1-257, S43A;R45A;K47A;H70A;K158A); experiment: EMSA
T3 sequence: T1 sequence (A7X1N2 1-257) with S43A, R45A, K47A, H70A, K158A

saCodY E153A = biological target: T4, saCodY E153A (Staphylococcus aureus, UniProt A7X1N2 1-257, E153A); experiment: EMSA
T4 sequence: T1 sequence (A7X1N2 1-257) with E153A

crystal structure = biological target: the molecule itself; experiment: crystal structure

`Nc1ncnc2c1ncn2[C@@H]1O[C@H](COP(=O)(O)OP(=O)(O)OP(=O)(O)O)[C@@H](O)[C@H]1O` [ATP] was tested. Which Kd (saCodY [1]) did it give?
The Kd was 19 mM.

`Nc1nc2c(ncn2[C@@H]2O[C@H](COP(=O)(O)OP(=O)(O)O)[C@@H](O)[C@H]2O)c(=O)[nH]1` [GDP] was tested. Which Kd (saCodY [1]) did it give?
The Kd was 17 mM.

For `Nc1nc2c(ncn2[C@@H]2O[C@H](COP(=O)(O)O)[C@@H](O)[C@H]2O)c(=O)[nH]1` [GMP], which Kd (saCodY [1]) is on record?
Its Kd is 20 mM.

`Nc1nc2c(ncn2[C@@H]2O[C@H](COP(=O)(O)OP(=O)(O)OP(=O)(O)O)[C@@H](O)[C@H]2O)c(=O)[nH]1` [GTP] was tested. Which Kd (saCodY [2]) did it give?
Its Kd is 28 mM.

What about the Kd (saCodY [3]) of the same molecule?
The Kd was 35 mM.

What about the Kd (saCodY [1]) of the same molecule?
The Kd was 2.26 mM.

What about the “size-exclusion chromatography, change of oligomeric state” value (bcCodY) of the same molecule?
Its value is “after incubation of saCodY and bcCodY with GTP, the proteins eluted at much smaller sizes”.

B1: CodY from Bacillus cereus (bcCodY), wild type (natural protein, UniProt Q819X8 1-259, looked up)
chain: T2 sequence (Q819X8 1-259)
How did the “stoichiometry N” value (SEC) turn out when B1 was run?
The value was 4.

B2: ilvB promoter 45-mer (dsDNA)
DNA 1: CAGGTGGCGTCATGCAAGTCCCTGAGAATTTAATTTAATTTATTT
DNA 2: AAATAAATTAAATTAAATTCTCAGGGACTTGCATGACGCCACCTC
Which results are given for B2?
binding signal (saCodY 3P5A): 3 fold Kd vs WT without GTP; binding signal (saCodY E153A): 1.7 fold Kd vs WT without GTP

B3: CodY from Staphylococcus aureus (saCodY), wild type (natural protein, UniProt A7X1N2 1-257, looked up)
chain: T1 sequence (A7X1N2 1-257)
Which “stoichiometry N” value (crystal structure) does the source give for B3 here?
The value was 2.

What about the “stoichiometry N” value (SEC) of the same molecule?
Its value is 4.
